Measured values taken from patent publication US9617221B2, “Kinase modulators for the treatment of cancer” (Synovo GmbH, priority 2010, dated 2017).
Where “and” joins values, the source holds several entries; their conditions need not be identical. Equal entries are not always repeated.

Columns and labels:
pancreatic cancer = test: Survival of mice with pancreatic cancer; type: in vivo; settings: Gemcitabine 100 mg/kg every 5th day; 43j 10 mmol/kg/d i.p.; 49 10 μmol/kg/day i.p.
Procedure: (§1) For treatment of pancreatic cancer, mice susceptible to pancreatic cancer were observed until cancer was apparent. Thereafter, animals were classified by ultrasound to a group of similar tumour size and were allocated to treatments: Vehicle, Gemcitabine 100 mg/kg every 5th day, or Gemcitabine plus the IL-10 inhibitor 43j ([…] i.p.), or the IL-12 stimulant 49 (10 μmol/kg/day i.p.) or all three combined at the doses specified.

IL-12 [1] = test: IL-12 production by bone marrow derived macrophage or tumour associated macrophage; type: cell-based, C57BL/6 mice; settings: 1 or 10 μM; stimulant such as LPS or TNFa or tumour conditioned medium
Procedure: (§2) A similar experiment can be performed using Bone marrow derived macrophage or Tumour associated macrophage (TAM): Mouse macrophages were derived from the bone marrow of WT, C57BL/6 mice and cultured for 7 d in DMEM medium supplemented with 10 ng/ml recombinant mouse M-CSF (R & D Systems). TAMs were isolated from the peritoneal cavity of mice in which IDB ovarian cancers had been growing i.p. for up to 10 wk. The macrophage are then treated with the compound to test at 1 or 10 μM in the presence of a stimulant such as LPS or TNFa or tumour conditioned medium.

IL-10 [2] = test: IL-10 gene expression in murine pancreatic cancer tumours (real time PCR); type: in vivo, mice; settings: tumour mRNA; daily i.p. 10 μmol/kg; vehicle 21.4
Procedure: as §1
(§3) Murine pancreatic cancer was induced as in Example 61. Mice carrying tumours were selected when the tumour was first detectable by ultrasound and the animals allocated to groups treated with either Vehicle, 49 alone or 43J alone or the combination of 49 and 43j. Compounds were supplied daily i.p. at 10 μmol/kg. Gene expression as determined by mRNA levels is determined by real time PCR methods using reverse transcribed templates.

TNFa = TNFa gene expression in murine pancreatic cancer tumours (real time PCR); type: in vivo, mice; settings: tumour mRNA; daily i.p. 10 μmol/kg; vehicle 15.2
Procedure: as §1, §3

IL-6 [3] = test: IL-6 gene expression in murine pancreatic cancer tumours (real time PCR); type: in vivo, mice; settings: tumour mRNA; daily i.p. 10 μmol/kg; vehicle 22.5
Procedure: as §1, §3

IFNg = IFNg gene expression in murine pancreatic cancer tumours (real time PCR); type: in vivo, mice; settings: tumour mRNA; daily i.p. 10 μmol/kg; vehicle 1.0
Procedure: as §1, §3

IL-23 = IL-23 gene expression in murine pancreatic cancer tumours (real time PCR); type: in vivo, mice; settings: tumour mRNA; daily i.p. 10 μmol/kg; vehicle 15.2
Procedure: as §1, §3

IL-17 = IL-17 gene expression in murine pancreatic cancer tumours (real time PCR); type: in vivo, mice; settings: tumour mRNA; daily i.p. 10 μmol/kg; vehicle 17.8
Procedure: as §1, §3

IL-4 = IL-4 production, Con A, spleen; type: cell-based, mice; settings: 5 μM, 72 h
Procedure: (§4) Peritoneal macrophage or splenocytes (lymphocytes and macrophage) were harvested from donor mice using standard techniques. Cells were placed in culture and stimulated with either LPS (10 μg/mL) or concanavalin A 5 μg/mL (Sigma Chemical Co., St Louis, Mo.) in RPMI-1640 medium supplemented with antibiotics, […] 2-mercaptoethanol, 10 mm HEPES buffer and 10% fetal calf serum (FCS) (see Holan et al., 1985) to stimulate macrophage and T-cells respectively. Compounds were added from DMSO stock solutions to a final concentration of 50 μM or less with DMSO not exceeding 1% of total volume. After 72 h, cell supernatant was recovered and the cytokine levels were estimated by ELISA. The effect of compounds on cytokine production was recorded as follows: […]

IL-12 [4] = test: IL-12 gene expression in murine pancreatic cancer tumours (real time PCR); type: in vivo, mice; settings: tumour mRNA; daily i.p. 10 μmol/kg; vehicle 3.1
Procedure: as §1, §3

IL-10 [5] = test: IL-10 production by LPS-stimulated murine peritoneal macrophage (ELISA); type: cell-based, mice; settings: for IL-10 by ELISA, % of solvent treated control: murine peritoneal macrophage
Procedure: as §4

T cells = test: Proliferation of Con A-stimulated T cells; type: cell-based, mice; settings: 10 μM
Procedure: as §4

IL-1β = IL-1β production by LPS-stimulated macrophages; type: cell-based, mice; settings: 5 μM, 72 h
Procedure: as §4

B cells = test: Proliferation of LPS-stimulated B cells; type: cell-based, mice; settings: 10 μM
[6] = system: Lewis Lung Carcinoma Cells (LLC); test: Subcutaneous Lewis Lung Carcinoma tumour growth; type: in vivo, C57BLK6 mice; settings: 12.5 mg/kg p.o. once daily
Procedure: Lewis Lung Carcinoma Cells (LLC) are cultured by incubation in a medium which is RPMI 1640 (50%) and DMEM (50%) with a final concentration or fetal calf serum of 10%. After culture to the log phase, 10^5 cells are injected subcutaneously in […] mice. Mice are treated with substance either orally or via intraperitoneal injection.

NO = NO production by LPS-stimulated macrophages; type: cell-based, mice; settings: 10 μM, 72 h
IFN-g = IFN-g production by ConA-stimulated T cells; type: cell-based, mice; settings: 10 μM, 72 h
Procedure: as §4

IL-2 = IL-2 production by ConA-stimulated T cells; type: cell-based, mice; settings: 10 μM, 72 h
Procedure: as §4

IL-6 [7] = test: IL-6 production by LPS-stimulated macrophages; type: cell-based, mice; settings: 10 μM, 72 h
Procedure: as §4

IL-10 [8] = test: IL-10 production by ConA-stimulated T cells; type: cell-based, mice; settings: 10 μM, 72 h
Procedure: as §4

IL-10 [9] = test: IL-10 production by bone marrow derived macrophage or tumour associated macrophage; type: cell-based, C57BL/6 mice; settings: 1 or 10 μM; stimulant such as LPS or TNFa or tumour conditioned medium
Procedure: as §2

SMILES: Nc1ccn([C@@H]2O[C@H](CO)[C@@H](O)C2(F)F)c(=O)n1 [Gemcitabine]
- survival time relative to vehicle (pancreatic cancer): 1.5 fold

SMILES: Nc1c(C(=O)c2cccc(OCC(O)CO)c2)cnn1-c1ccc(F)cc1 (centres unmarked) [Compound 49, [5-Amino-1-(4-fluoro-phenyl)-1H-pyrazol-4-yl]-[3-(2,3-dihydroxy-propoxy)-phenyl]-methanone]
- production of IL-12 (IL-12 [1]): stimulates the production of IL-12
- Relative Gene expression, IL-10 (IL-10 [2]): 8.9
- Relative Gene expression, TNFa (TNFa): 21.4
- Relative Gene expression, IL-6 (IL-6 [3]): 18.3
- Relative Gene expression, IFNg (IFNg): 6.3
- Relative Gene expression, IL-23 (IL-23): 2.1
- Relative Gene expression, IL-17 (IL-17): 15.2
- IL-4 (Con A, spleen), amount of cytokine (IL-4): 188 % of control treated with solvent alone
- Relative Gene expression, IL-12 (IL-12 [4]): 28.8
- IL-10 by ELISA, % of solvent treated control (IL-10 [5]; 1.25 μM inhibitor in medium): 41 % of solvent treated control
- IL-10 by ELISA, % of solvent treated control (IL-10 [5]; 5 μM inhibitor in medium): 42 % of solvent treated control
- IL-10 by ELISA, % of solvent treated control (IL-10 [5]; 20 μM inhibitor in medium): 13 % of solvent treated control

SMILES: CC[C@H]1OC(=O)[C@H](C)[C@@H](O[C@H]2C[C@@](C)(OC)[C@@H](O)[C@H](C)O2)[C@H](C)[C@@H](O[C@@H]2O[C@H](C)C[C@H](N(C)CCCC(=O)OCC(O)CSc3nc(-c4ccc(F)cc4)c(-c4ccncc4)[nH]3)[C@H]2O)[C@](C)(O)C[C@@H](C)CN(C)[C@H](C)[C@@H](O)[C@]1(C)O (some centres unmarked) [Compound 43g]
- Proliferation (Con A, T cells) (T cells): 3 % of control treated with solvent alone
- IL-1β (Macrophages, LPS), amount of cytokine (IL-1β): 28 % of control treated with solvent alone
- Proliferation (LPS, B cells) (B cells): −1 % of control treated with solvent alone
- IL-4 (Con A, spleen), amount of cytokine (IL-4): 125 % of control treated with solvent alone
- IL-10 by ELISA, % of solvent treated control (IL-10 [5]; 1.25 μM inhibitor in medium): 26 % of solvent treated control
- IL-10 by ELISA, % of solvent treated control (IL-10 [5]; 5 μM inhibitor in medium): −12 % of solvent treated control
- IL-10 by ELISA, % of solvent treated control (IL-10 [5]; 20 μM inhibitor in medium): −12 % of solvent treated control

SMILES: CCc1nc(-c2cccc(C)c2)c(-c2ccnc(NC(=O)c3ccccc3)c2)s1 [TAK-715]
- growth rate of the LLC tumour [6]: reduction in the growth rate of the LLC tumour

SMILES: CC[C@H]1OC(=O)[C@H](C)[C@@H](O)[C@H](C)[C@@H](O[C@@H]2O[C@H](C)C[C@H](N(C)CC(O)CSc3nc(-c4ccc(F)cc4)c(-c4ccncc4)[nH]3)[C@H]2O)[C@](C)(O)C[C@@H](C)CN(C)[C@H](C)[C@@H](O)[C@]1(C)O (some centres unmarked) [Compound 22]
- NO (LPS, Macrophages), % of control treated with solvent alone (NO): 69 % of control treated with solvent alone
- Proliferation (Con A, T cells) (T cells): 10 % of control treated with solvent alone
- IFN-g (ConA, T cells), amount of cytokine (IFN-g): 41 % of control treated with solvent alone
- IL-1β (Macrophages, LPS), amount of cytokine (IL-1β): 90 % of control treated with solvent alone and 106 % of control treated with solvent alone
- IL-2 (ConA, T cells), amount of cytokine (IL-2): 29 % of control treated with solvent alone
- IL-4 (Con A, spleen), amount of cytokine (IL-4): 237 % of control treated with solvent alone and 407 % of control treated with solvent alone
- IL-6 (LPS, Macrophages), amount of cytokine (IL-6 [7]): 116 % of control treated with solvent alone
- IL-10 (ConA, T cells), amount of cytokine (IL-10 [8]): 144 % of control treated with solvent alone
- IL-10 by ELISA, % of solvent treated control (IL-10 [5]; 0.31 μM inhibitor in medium): 103 % of solvent treated control
- IL-10 by ELISA, % of solvent treated control (IL-10 [5]; 1.25 μM inhibitor in medium): 86 % of solvent treated control
- IL-10 by ELISA, % of solvent treated control (IL-10 [5]; 5 μM inhibitor in medium): 43 % of solvent treated control
- IL-10 by ELISA, % of solvent treated control (IL-10 [5]; 10 μM inhibitor in medium): 13 % of solvent treated control
- IL-10 (LPS, Macrophages), amount of cytokine (IL-10 [5]; 10 μM, LPS, macrophages, 72 h): 13 % of control treated with solvent alone
- IL-10 by ELISA, % of solvent treated control (IL-10 [5]; 20 μM inhibitor in medium): −3 % of solvent treated control

SMILES: CC[C@H]1OC(=O)[C@H](C)[C@@H](O[C@H]2C[C@@](C)(OC)[C@@H](O)[C@H](C)O2)[C@H](C)[C@@H](O[C@@H]2O[C@H](C)C[C@H](N(C)CCCCCC(=O)OCCSc3nc(-c4ccc(F)cc4)c(-c4ccnc(NC5CCOCC5)c4)[nH]3)[C@H]2O)[C@](C)(O)C[C@@H](C)CN(C)[C@H](C)[C@@H](O)[C@]1(C)O [Compound 43j]
- Relative Gene expression, IL-10 (IL-10 [2]): 3.1
- Relative Gene expression, TNFa (TNFa): 13.1
- Relative Gene expression, IL-6 (IL-6 [3]): 15.2
- Relative Gene expression, IFNg (IFNg): 4.2
- Relative Gene expression, IL-23 (IL-23): 11.0
- production of IL-10 (IL-10 [9]): inhibits the production of IL-10
- Relative Gene expression, IL-17 (IL-17): 14.6
- Relative Gene expression, IL-12 (IL-12 [4]): 3.4

SMILES: CC[C@H]1OC(=O)[C@H](C)[C@@H](O[C@H]2C[C@@](C)(OC)[C@@H](O)[C@H](C)O2)[C@H](C)[C@@H](O[C@@H]2O[C@H](C)C[C@H](N(C)CC(O)CSc3nc(-c4ccc(F)cc4)c(-c4ccncc4)[nH]3)[C@H]2O)[C@](C)(O)C[C@@H](C)CN(C)[C@H](C)[C@@H](O)[C@]1(C)O (some centres unmarked) [Compound 20]
- Proliferation (Con A, T cells) (T cells): 0 % of control treated with solvent alone
- IL-1β (Macrophages, LPS), amount of cytokine (IL-1β): 34 % of control treated with solvent alone
- Proliferation (LPS, B cells) (B cells): −1 % of control treated with solvent alone
- IL-4 (Con A, spleen), amount of cytokine (IL-4): −5 % of control treated with solvent alone
- IL-10 by ELISA, % of solvent treated control (IL-10 [5]; 1.25 μM inhibitor in medium): −11 % of solvent treated control
- IL-10 by ELISA, % of solvent treated control (IL-10 [5]; 5 μM inhibitor in medium): −12 % of solvent treated control
- IL-10 by ELISA, % of solvent treated control (IL-10 [5]; 20 μM inhibitor in medium): −12 % of solvent treated control
